For one compound, Solubility of torasemide results are on record in patent US11337921B2, “Multi-use torasemide composition” (VETOQUINOL SA, priority 2018, dated 2022).

A short description of this data set: Solubility of torasemide as a function of pH. Type of data set: physicochemical. The note with it: pH between about 2 and 7 (FIG. 1). The text has this:
Moreover, the solubility of torasemide depends on the pH of the solution. The stability of torasemide in solution is, moreover, a function of the additives and excipients used in the composition. Thus, torasemide is insoluble at a pH between about 2 and 7 (FIG. 1).

Turning to `Cc1cccc(Nc2ccncc2S(=O)(=O)NC(=O)NC(C)C)c1` [torasemide, 1-isopropyl-3-[(4-m-toluidino-3-pyridyl)sulfonyl]urea], the Solubility of torasemide result is listed as “insoluble”.
